Measured values: patent US5488149A, “Substituted amic acid derivatives” (Banyu Pharmaceutical Co., Ltd., priority 1993, dated 1996)

Molecular target: T1, squalene synthase (Homo sapiens, UniProt P37268)
T1 construct: A microsome fraction was prepared from human-hepatoma(Hep G2) cells; endogenous in cells; host or cells: Hep G2 (human hepatoma) cells, washed microsome fraction
T1 sequence (P37268 1-417): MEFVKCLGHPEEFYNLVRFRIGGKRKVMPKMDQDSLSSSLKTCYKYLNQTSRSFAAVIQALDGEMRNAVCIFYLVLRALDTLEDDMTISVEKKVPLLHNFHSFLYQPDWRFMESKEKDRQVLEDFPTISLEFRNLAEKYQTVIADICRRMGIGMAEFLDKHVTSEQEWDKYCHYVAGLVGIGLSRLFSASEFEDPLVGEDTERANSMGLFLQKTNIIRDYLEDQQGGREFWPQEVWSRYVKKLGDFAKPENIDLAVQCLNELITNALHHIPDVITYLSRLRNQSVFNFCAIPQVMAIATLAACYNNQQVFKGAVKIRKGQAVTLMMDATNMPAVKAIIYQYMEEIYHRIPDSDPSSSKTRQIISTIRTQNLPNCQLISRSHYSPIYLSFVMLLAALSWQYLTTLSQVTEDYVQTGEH
Assay: Inhibitory activities against squalene synthase
Assay type: biochemical
Conditions: microsome fraction from human hepatoma (Hep G2) cells; 10 μM [3H]-farnesyl pyrophosphate; pH 7.4; 37° C., 20 minutes; read-out: 50% inhibitory concentration against squalene synthase activity (IC50)
Description: Inhibitory activities against squalene synthase (1) Preparation of a microsome fraction A microsome fraction was prepared from human-hepatoma(Hep G2) cells by the method of Shechter et al disclosed in J. Biol. Chem., 267, 8628 (1992). Namely, Hep G2 cells were homogenized in the presence of a 0.3M sucrose-1 mM DTT-1 mM EDTA-10 mM Hepes buffer solution (pH 7.4) and various protease inhibitors, and subjected to centrifugal separation at 2000×g for 5 minutes and 10000×g for 15 minutes. The obtained supernatant was further subjected to centrifugal separation at 105000×g for 60 minutes, whereupon the precipitated residue was obtained. This precipitated residue was suspended in the above buffer solution containing various protease inhibitors, and the suspension was further subjected to centrifugal separation at 105000×g for 30 minutes to wash the precipitated residue. This washing operation was repeated three times. The finally obtained precipitated residue was taken as a microsome fraction, which was suspended in the above buffer solution containing no such various protease inhibitors, and the suspension was used for measuring the enzyme activities. (2) Method for measuring squalene synthase activities The enzymatic reaction of the squalene synthase was conducted in accordance with the method of Shechter et al disclosed in J. Biol. Chem., 267, 8628 (1992). […] Biochem., 203, 310 (1992). […] 50% inhibitory concentration against squalene synthase activity

IC50 | Compound
4.7 nM | C[C@@H](NC(=O)CC(CC(=O)O)C(=O)O)[C@H](Cc1ccc2ccccc2c1)c1ccc(-c2ccccc2)cc1 (relative stereo) [Example 32, N-{(1RS, 2RS)-2-(4-Biphenylyl)-1-methyl-3-(2-naphthyl)propyl}carbamoylmethylsuccinic acid]
5.4 nM | C[C@@H](NC(=O)CC(CC(=O)O)C(=O)O)[C@H](Cc1ccc(Cl)cc1)c1ccc(-c2ccccc2)c(F)c1 (relative stereo) [Example 35, N-{(1RS, 2RS)-3-(4-Chlorophenyl)-2-(2-fluoro-4-biphenylyl)-1-methylpropyl}carbamoylmethylsuccinic acid]
1.7 nM | C[C@@H](NC(=O)CC(CC(=O)O)C(=O)O)[C@@H](/C=C/c1ccc2ccccc2c1)Cc1ccc(Cl)c(Cl)c1 (relative stereo) [Example 102, N-((1RS, 2RS, 3E)-2-(3,4-dichlorobenzyl)-1-methyl-4-(2-naphthyl)-3-butenyl)carbamoylmethylsuccinic acid]
3.1 nM | CC(CC(=O)O)CC(=O)N[C@H](C)[C@@H](/C=C/c1ccc2ccccc2c1)Cc1ccc(Cl)c(Cl)c1 (relative stereo) [Example 112, 4-{(1RS, 2RS, 3E)-2-(3,4-dichlorobenzyl)-1-1-methyl-4-(2-naphthyl)-3-butenylcarbamoyl}-3-methylbutanoic acid]
3.2 nM | C[C@H](NC(=O)C[C@H](CC(=O)O)C(=O)O)[C@@H](Cc1ccc(Cl)cc1)c1ccc(-c2ccccc2)cc1 [Example 46 (2R-form), (2R)-2-[N-{(1S, 2S)-2-(4-biphenylyl)-3-(4-chlorophenyl)-1-methylpropyl} -carbamoylmethyl]succinic acid]
3 nM | C[C@@H]([C@@H](Cc1ccc(Cl)c(Cl)c1)c1ccc(-c2ccccc2)cc1)N(C)C(=O)C[C@@H](CC(=O)O)C(=O)O [Example 49, (2S)-2-[N-{(1S, 2S)-2-(4-Biphenylyl)-3-(3, 4dichlorophenyl) -1-methylpropyl}-N-methylcarbamoylmethyl]succinic acid]
1.4 nM | C[C@H](NC(=O)CC/C=C/C(=O)O)[C@@H](Cc1ccc(Cl)c(Cl)c1)c1ccc(-c2ccccc2)c(F)c1 [Example 70, (E)-5-[N-{(1S, 2S)-3-(3,4-Dichlorophenyl)-2-(2-fluoro-4-biphenylyl)-1-methylpropyl}carbamoyl]-2-pentenoic acid]
0.5 nM | C[C@H](NC(=O)C[C@@H](CC(=O)O)C(=O)O)[C@@H](Cc1ccc(Cl)c(Cl)c1)OC(=O)c1ccc2ccccc2c1 [Example 92, (2S)-2-[N-{(1S, 2R)-3-(3,4-dichlorophenyl)-1-methyl-2-(2-naphthoyloxy)propyl}carbamoylmethyl]succinic acid]
